Marks after values point to notes of the source that are not given here.
How the values were obtained:
B-Raf (V600e) = B-Raf (V600e) (Homo sapiens (Human), UniProt P15056, V600E); assay: KINOMEscan enzyme binding assay, B-Raf (V600e)
Experimental: Kinase enzyme binding activities of compounds disclosed herein may be determined using a proprietary assay which measures active site-directed competition binding to an immobilized ligand (Fabian, M. A. et al., Nature Biotechnol., 2005, 23:329-336). These assays may be conducted by DiscoverX (formerly Ambit; San Diego, Calif.). The percentage inhibition produced by incubation with a test compound may be calculated relative to the non-inhibited control.

PBMCs = assay: (c) IL-2 and IFN gamma release in CD3/CD28 stimulated PBMC cells; format: cell-based; details: Homo sapiens, read-out: IC50 for Inhibition of Cytokine Release, IFNγ
Experimental: PBMCs from healthy subjects are separated from whole blood using a density gradient (Lymphoprep, Axis-Shield Healthcare). Cells are added to a 96 well plate pre-coated with a mixture of CD3/CD28 monoclonal antibodies (0.3 ug/ml eBioscience and 3 ug/ml BD Pharmingen respectively). Compound at the desired concentration is then added to the wells and the plate left for 3 days under normal tissue culture conditions. […] The IC50 is determined from the dose response curve.

[1] = test system: adoptive transfer mouse model; assay: (D) Adoptive transfer in mice; format: in vivo, female SCID mice
Experimental: On Study day 0, female Balb/C mice are terminated and spleens obtained for CD45RB^high cell isolation (Using SCID IBD cell Separation protocol). Approximately 4×10^5 cells/mL CD45RB^high cells are then injected IP (100 μL/mouse) into female SCID animals. On study day 14, mice are weighed and randomized into treatment groups based on body weight. On Day 14 compounds are administered BID, via oral gavage, in a peanut oil vehicle at the dose levels outlined below and a dose volume of 5 mL/kg. Treatment continues until study day 42, at which point the animals are necropsied 4 hours after am administration. The colon length and weight is recorded and used as a secondary endpoint in the study as a measurement of colon oedema. The colon is then divided into six cross-sections, four of which are used for histopathology scoring (primary endpoint) and two are homogenised for cytokine analysis. Data shown is the % inhibition of the induction window between naïve animals and vehicle animals, where higher inhibition implies closer to the non-diseased, naïve, phenotype.

[2] = Cryopreserved hepatocyte stability, human; format: in vitro ADME; details: pooled cryopreserved hepatocytes, read-out: Mean intrinsic clearance
Experimental: Formulae Clint(tissue clearance) mL/min/kg=[0.693/t½ (min)]×[1/microsomal protein concentration mg/mL]×[mg microsomes/g liver]×[g liver/kg body weight] […] The incubations were performed at 37° C. with 100 μL, samples taken from the incubation, at 0, 10, 20, 45 and 90 minutes, and reactions terminated by addition of 100 μL of acetonitrile containing carbamazepine as analytical internal standard. […] Half-life values were calculated from the relationship T1/2 (min)=−0.693/λ • where λ was the slope of the Ln concentration vs time curve. • Standard compounds testosterone, midazolam and 4-methylumbelliferone are included in the assay design.
Clint(Tissue Clearance) mL/min/kg=[0.693/t½(min)]×[1/hepatocyte concentration (million cells/mL)]×[million cells/g liver]×[g liver/kg body weight] Clint(Hepatic clearance) mL/min/kg=hepatic blood flow×Clint/(hepatic blood flow+Clint) Hepatic extraction ratio(Eh)=Clint(Hepatic clearance) mL/min/kg/hepatic blood flow (mL/min/kg)

CYP2C9 = CYP2C9 (Homo sapiens (Human), UniProt P11712); assay: CYP450 time-dependent inhibition, CYP2C9; format: in vitro ADME
CYP2C9, sequence (P11712 whole entry): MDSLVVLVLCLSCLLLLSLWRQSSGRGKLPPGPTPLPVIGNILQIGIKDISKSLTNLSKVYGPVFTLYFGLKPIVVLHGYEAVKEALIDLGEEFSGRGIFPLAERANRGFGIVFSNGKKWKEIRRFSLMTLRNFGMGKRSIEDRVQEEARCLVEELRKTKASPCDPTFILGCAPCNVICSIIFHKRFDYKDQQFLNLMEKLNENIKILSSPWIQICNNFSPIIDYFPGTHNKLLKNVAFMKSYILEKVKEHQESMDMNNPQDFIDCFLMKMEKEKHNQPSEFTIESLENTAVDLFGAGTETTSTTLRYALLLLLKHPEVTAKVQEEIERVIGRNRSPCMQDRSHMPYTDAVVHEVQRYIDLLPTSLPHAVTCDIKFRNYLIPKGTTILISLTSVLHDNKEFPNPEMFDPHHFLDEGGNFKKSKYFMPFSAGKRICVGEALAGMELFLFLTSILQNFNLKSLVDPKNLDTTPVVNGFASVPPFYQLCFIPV
Experimental: CYP450 time-dependent inhibition (TDI) assays were performed with test compound at six test concentrations, 0.062 μM to 15 μM (n=2). The test compounds was pre-incubated for 30 minutes with pooled human hepatic microsomes in 0.1 M Tris buffer, pH 7.4, at 37° C. in the presence of cofactor NADPH. A parallel series of incubations (n=2) were prepared with no pre-incubation. Probe substrates were then added (with additional cofactor) and further incubated for the times specified. Concentrations of probe substrates used in the incubations have been optimised to maintain first order reaction conditions.
Reactions were terminated with acetonitrile containing analytical internal standard (carbamazepine), samples then centrifuged to remove microsomal protein and analysed using optimised LC/MS-MS conditions. The MS data were normalised to internal standard and compared to the appropriate solvent controls to determine the amount of metabolite formed from the probe substrate relative to the “uninhibited” controls. The results are quoted as % inhibition.
Variation in probe turnover between plate wells means that inhibition values recorded below 10-15% may not be significant.

hERG = hERG (Homo sapiens (Human), UniProt Q12809); assay: hERG inhibition, IonWorks patch clamp; format: cell-based
hERG, sequence (Q12809 whole entry): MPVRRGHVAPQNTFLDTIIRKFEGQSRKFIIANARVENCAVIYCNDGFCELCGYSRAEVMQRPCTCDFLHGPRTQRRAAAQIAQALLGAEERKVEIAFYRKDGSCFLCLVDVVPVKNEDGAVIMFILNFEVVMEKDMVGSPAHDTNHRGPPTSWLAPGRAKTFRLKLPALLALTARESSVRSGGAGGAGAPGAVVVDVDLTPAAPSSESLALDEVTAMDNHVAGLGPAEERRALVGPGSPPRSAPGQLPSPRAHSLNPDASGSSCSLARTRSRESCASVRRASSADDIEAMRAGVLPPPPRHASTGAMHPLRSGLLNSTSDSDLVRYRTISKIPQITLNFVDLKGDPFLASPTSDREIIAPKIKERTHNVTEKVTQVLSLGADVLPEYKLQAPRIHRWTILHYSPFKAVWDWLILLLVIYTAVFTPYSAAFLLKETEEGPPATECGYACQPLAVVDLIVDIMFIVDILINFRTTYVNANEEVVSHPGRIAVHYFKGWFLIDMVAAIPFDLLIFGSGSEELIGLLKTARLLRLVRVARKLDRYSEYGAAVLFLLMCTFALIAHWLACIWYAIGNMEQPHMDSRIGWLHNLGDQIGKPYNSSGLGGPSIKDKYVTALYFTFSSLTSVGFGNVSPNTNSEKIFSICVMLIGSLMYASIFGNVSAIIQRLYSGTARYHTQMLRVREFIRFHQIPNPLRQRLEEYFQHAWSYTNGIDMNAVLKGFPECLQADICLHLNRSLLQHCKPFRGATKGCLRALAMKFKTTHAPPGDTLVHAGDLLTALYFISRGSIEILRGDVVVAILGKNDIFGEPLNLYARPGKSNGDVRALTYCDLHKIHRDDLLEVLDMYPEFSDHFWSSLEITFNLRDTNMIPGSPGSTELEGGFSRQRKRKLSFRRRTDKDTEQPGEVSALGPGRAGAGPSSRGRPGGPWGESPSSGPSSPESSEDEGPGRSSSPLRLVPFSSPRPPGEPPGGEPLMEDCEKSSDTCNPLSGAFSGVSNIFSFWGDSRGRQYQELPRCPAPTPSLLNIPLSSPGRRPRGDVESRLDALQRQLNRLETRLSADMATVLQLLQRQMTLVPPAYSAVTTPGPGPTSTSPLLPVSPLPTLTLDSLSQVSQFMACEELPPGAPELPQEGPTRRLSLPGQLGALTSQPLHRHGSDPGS
Experimental: Eight-point concentration curves were generated using serial 3-fold dilutions from the maximum final assay concentration (3 μM). Electrophysiological recordings were made from a Chinese Hamster Lung cell line stably expressing the full length hERG channel Single cell ionic currents were measured in the perforated patch clamp configuration (100 μg/mL) amphotericin) at room temperature (21-23° C.) using an IonWorks Quattro instrument. The internal solution contained (mM): 140 KCl, 1 MgCl2, 1 EGTA, 20 HEPES and was buffered to pH 7.3. The external solution contained (mM):138 NaCl, 2.7 KCl, 0.9 CaCl2, 0.5 MgCl2, 8 Na2HPO4, 1.5 KH2PO4, also buffered to pH 7.3. Cells were clamped at a holding potential of −70 mV for 30 s and then stepped to +40 mV for 1 s. This was followed by a hyperpolarising step of 1 s to −30 mV to evoke the hERG tail current. This sequence was repeated 5 times at a frequency of 0.25 Hz. Currents were measured from the tail step at the 5th pulse, and referenced to the holding current. Compounds were then incubated for 6-7 minutes prior to a second measurement of the hERG signal using an identical pulse train. Eight-point concentration curves were generated using serial 3-fold dilutions from the maximum final assay concentration (3 μM).

[3] = test system: 71 receptors and 26 enzymes; assay: Cerep Diversity Profile; format: binding; details: 300 nM; any of 71 receptors and 26 enzymes
[4] = Chemical stability in solid form at 40° C. and 75% relative humidity; format: physicochemical
Experimental: The results of the study are reported in the table below (where chemical purity was assessed using HPLC).

B-Raf (V600e), sequence (P15056 whole entry V600E): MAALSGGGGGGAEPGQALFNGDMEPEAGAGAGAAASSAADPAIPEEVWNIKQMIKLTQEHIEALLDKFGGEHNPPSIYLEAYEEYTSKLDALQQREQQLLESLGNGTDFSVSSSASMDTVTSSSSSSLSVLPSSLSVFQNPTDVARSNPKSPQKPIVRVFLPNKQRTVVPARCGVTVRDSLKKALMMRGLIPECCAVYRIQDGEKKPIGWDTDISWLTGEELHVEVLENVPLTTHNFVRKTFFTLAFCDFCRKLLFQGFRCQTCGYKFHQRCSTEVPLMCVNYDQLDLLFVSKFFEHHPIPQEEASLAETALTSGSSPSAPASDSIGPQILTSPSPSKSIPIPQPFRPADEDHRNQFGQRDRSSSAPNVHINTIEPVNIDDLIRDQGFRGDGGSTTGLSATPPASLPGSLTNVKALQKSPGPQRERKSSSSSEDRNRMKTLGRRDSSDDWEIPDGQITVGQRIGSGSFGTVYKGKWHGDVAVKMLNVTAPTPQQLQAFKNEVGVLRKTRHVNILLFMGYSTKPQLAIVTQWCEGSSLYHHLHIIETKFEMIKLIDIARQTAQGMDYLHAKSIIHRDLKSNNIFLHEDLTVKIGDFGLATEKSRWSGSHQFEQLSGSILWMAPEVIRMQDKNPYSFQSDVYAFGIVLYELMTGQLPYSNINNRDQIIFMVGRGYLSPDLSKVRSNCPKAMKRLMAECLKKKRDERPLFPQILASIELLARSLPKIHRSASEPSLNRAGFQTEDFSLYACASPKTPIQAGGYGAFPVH

## C#Cc1cc(Nc2nccc(Oc3ccc(NC(=O)Nc4cc(C(C)(C)C)nn4-c4ccc(C)cc4)c4ccccc34)n2)cc(C(=O)NCCOCCOCCOC)c1 [Example 2, 3-((4-((4-(3-(3-(tert-Butyl)-1-(p-tolyl)-1H-pyrazol-5-yl)ureido)naphthalen-1-yl)oxy)pyrimidin-2-yl)amino)-5-ethynyl-N-(2-(2-(2-methoxyethoxy)ethoxy)ethyl)-benzamide]
B-Raf (V600e)
  effect on the binding of B-Raf (V600e) to its standard ligand: did not have any effect
PBMCs
  IC50: 2.5 nM
[1]; 0.04 mg/kg BID oral
  % Inhibition of colon weight:length: 25%#
  % inhibition of IL-8 release: 34%#
  % inhibition of overall histopathology score: 2%
[1]; 0.2 mg/kg BID oral
  % Inhibition of colon weight:length: 23%
  % inhibition of IL-8 release: 39%
  % inhibition of overall histopathology score: 5%
[1]; 1 mg/kg BID oral
  % Inhibition of colon weight:length: 43%#
  % inhibition of IL-8 release: 36%#
  % inhibition of overall histopathology score: 33%
[1]; 5 mg/kg BID oral
  % Inhibition of colon weight:length: 61%*
  % inhibition of IL-8 release: 90%#
  % inhibition of overall histopathology score: 46%
[2]
  hepatocyte CLint at 0.1 μM: 37 µL/min/1e6 cells
CYP2C9; CYP2C9, 0 min preincubation
  IC50: > 15 µM
CYP2C9; CYP2C9, 30 min preincubation
  IC50: > 15 µM
CYP2C9; human, pooled human liver microsomes, pH 7.4, CYP2C9, 0 min preincubation, 15 μM, read-out: 15 μM % Inh
  inhibition at 0 min, 15 µM: 35%
CYP2C9; human, pooled human liver microsomes, pH 7.4, CYP2C9, 30 min preincubation, 15 μM, read-out: 15 μM % Inh
  inhibition at 30 min, 15 µM: 37%
hERG
  IC50: > 3 µM
hERG; human, pH 7.3, 3 μM, read-out: inhibition of the hERG channel
  inhibition at 3 µM: 0%
[3]
  inhibition of the control specific binding in the receptor binding assays or enzyme assays: less than 25%
[4]; 0 months
  chemical purity (HPLC), solid form: 98.52%
[4]; 1 month, 40° C./75% RH
  chemical purity (HPLC), solid form: 96.88%
[4]; 3 months, 40° C./75% RH
  chemical purity (HPLC), solid form: 94.32%
